According to US8808702B2, “Sulfide, sulfoxide and sulfone chalcone analogues, derivatives thereof and therapeutic uses thereof” (Temple University-of the Commonwealth System of Higher …, priority 2006, dated 2014):
Read-outs that look alike come from different tables or passages of the source.

Legend:
[1] = system: K562 (chronic myelogenous leukaemia); assay: Effect of compounds on tumor cell lines (assay of Latham et al.), K562; type: cell-based; details: K562 cells, read-out: K 562 potency (IC50)
Protocol: (§1) The effect of the compounds of the invention on tumor cells was determined by the assay described by Latham et al., Oncogene 12:827-837 (1996). Tumor cells K562 (chronic myelogenous leukaemia) or DU145 (prostate cancer) were plated in 12-well dishes at a cell density of 2.5×10^4 cells well. The plated cells were treated 24 hours later with a compound of the invention dissolved in DMSO at multiple concentrations ranging from 1 μM to 100 μM. The plates were examined 96 hours later under an inverted microscope, Olympus CK-2 using an 10× objective, and compound activity was noted by physical observation. When necessary, the total number of viable cells was determined by trypsinizing the wells and counting the number of viable cells, as determined by trypan blue exclusion, using a hemacytometer.
(§2) The representative compounds listed in Tables 1-5 are shown by way of illustration, and are not intended to limit the scope of the invention. The compounds are prepared and tested by methods based on those described above, except that the compound of Table 5 was dissolved in DMSO at multiple concentrations ranging from 0.1 μM to 100 μM

[2] = system: DU145 (prostate cancer); assay: Effect of compounds on tumor cell lines (assay of Latham et al.), DU145; type: cell-based; details: DU145 cells, read-out: DU 145 potency (IC50)
Protocol: as §1, §2

[3] = 96 hours after treatment, 1 μM to 100 μM
[4] = Table 1, examined 96 hours after treatment, 1 μM to 100 μM in DMSO
[5] = Homo sapiens, Table 4, examined 96 hours after treatment, 1 μM to 100 μM in DMSO
[6] = Homo sapiens, DU-145, Table 4, examined 96 hours after treatment, 1 μM to 100 μM in DMSO
[7] = Table 3, examined 96 hours after treatment, 1 μM to 100 μM in DMSO

SMILES | IC50 [1, 3] [µM] | IC50 [2, 3] [µM] | IC50 [1, 4] [µM] | IC50 [2, 4] [µM] | also measured
CN(C)c1ccc(C=C(SCc2ccc(F)cc2)C(=O)c2ccc(Br)cc2)cc1 [Example 249] | 1 to 10 | 25 to 50 |  |  | 
O=C(C(=Cc1ccccc1OCc1ccccc1)Sc1ccc(Br)cc1)c1ccc(Cl)cc1 [Example 21] |  |  | 10 to 25 | 10 to 25 | 
O=C(C(=Cc1c(O)cc(O)cc1O)SCc1ccc(Cl)c(Cl)c1)c1ccc(Cl)cc1 [Example 136] | 25 to 50 | 25 to 50 |  |  | 
Cc1ccc(SC(=Cc2sccc2C)C(=O)c2ccc(Br)cc2)cc1 [Example 83] |  |  | 50 to 100 | 50 to 100 | 
Cc1ccsc1C=C(SCc1ccc(Cl)cc1)C(=O)c1ccc([N+](=O)[O-])cc1 [Example 207] | > 100 | > 100 |  |  | 
CCOc1cc(C=C(SCc2ccc(Cl)cc2Cl)C(=O)c2ccc(Cl)cc2)ccc1O [Example 117] | 1 to 10 | 10 to 25 |  |  | 
COc1ccc(C=C(Sc2ccc(Br)cc2)C(=O)c2ccc(Br)cc2)cc1 [Example 47] |  |  | 1 to 10 | 25 to 50 | 
O=C(C(=Cc1ccccc1OCc1ccccc1)SCc1ccc(F)cc1)c1ccc(Br)cc1 [Example 236] | 1 to 10 | 1 to 10 |  |  | 
Cc1ccc(C=C(SCc2ccc(Cl)cc2)C(=O)c2ccc(Cl)cc2)s1 [Example 230] | 50 to 100 | 50 to 100 |  |  | 
O=C(/C(=C\c1ccc([N+](=O)[O-])c(O)c1)SCc1ccc(Br)cc1)c1ccc(N2CCCC2)cc1 [Example 159] | > 100 | > 100 |  |  | 
CSc1ccc(C=C(Sc2ccc(C)cc2)C(=O)c2ccc(Br)cc2)cc1 [Example 97] |  |  | 1 to 10 | 25 to 50 | 
Cc1ccc(CS/C(=C/c2ccc(F)c([N+](=O)[O-])c2)C(=O)c2ccc(C(=O)O)cc2)cc1 [Example 347] | ≤ 1 | 1 to 10 |  |  | 
CCOC(=O)c1c(C)[nH]c(C=C(SCc2ccc(Br)cc2)C(=O)c2ccc(SCc3ccc(Br)cc3)c([N+](=O)[O-])c2)c1C [Example 309] | > 100 | > 100 |  |  | 
COc1ccccc1/C=C(\C(=O)c1ccc(Cl)cc1)S(=O)(=O)Cc1ccc(C)cc1 [Example 428] |  |  |  |  | IC50 [1, 5]: 10 to 25 µM; IC50 [2, 6]: 10 to 25 µM
CN(C)c1ccc(C=C(SCc2ccc(Cl)cc2)C(=O)c2ccc(Cl)cc2)cc1 [Example 210] | 10 to 25 | > 100 |  |  | 
COc1cc(OC)c(C=C(SCc2ccccc2Cl)C(=O)c2ccc(Cl)cc2)c(OC)c1 [Example 126] | 10 to 25 | 50 to 100 |  |  | 
O=C(C(=Cc1ccc(Br)cc1)Sc1ccccc1Br)c1ccc(Br)cc1 [Example 9] |  |  | 1 to 10 | 1 to 10 | 
COc1ccc(C(=O)C(=Cc2ccc(Cl)cc2)Sc2ccc(F)cc2)cc1 [Example 58] |  |  | > 100 | > 100 | 
Cc1ccc(C)c(C=C(SCc2ccc(F)cc2)C(=O)c2ccc(Br)cc2)c1 [Example 235] | 50 to 100 | 1 to 10 |  |  | 

SMILES | IC50 [1, 3] [µM] | IC50 [2, 3] [µM] | IC50 [1, 4] [µM] | IC50 [2, 4] [µM] | also measured
O=C(O)c1ccc(C(=O)/C(=C\c2ccc(Cl)c([N+](=O)[O-])c2)SCc2ccc(Br)cc2)cc1 [Example 168] | ≤ 1 | 1 to 10 |  |  | 
CN1CCN(CCNc2ccc(C=C(SCc3ccc(F)cc3)C(=O)c3ccc(F)cc3)cc2[N+](=O)[O-])CC1 [Example 329] | ≤ 1 | 1 to 10 |  |  | 
O=C(C(=Cc1ccc(Cl)cc1)SCc1ccc(Cl)cc1)c1ccc(Br)cc1 [Example 218] | 1 to 10 | 10 to 25 |  |  | 
O=C(C(=Cc1ccc(O)cc1O)Sc1ccccc1Br)c1ccc(Cl)cc1 [Example 7] |  |  | 50 to 100 | 50 to 100 | 
O=C(C(=Cc1ccc(O)c([N+](=O)[O-])c1)Sc1ccc(Br)cc1)c1c(F)c(F)c(F)c(F)c1F [Example 42] |  |  | 1 to 10 | 1 to 10 | 
COc1ccc(C=C(Sc2ccc(C)cc2)C(=O)c2ccc(Cl)cc2)cc1 [Example 100] |  |  | 1 to 10 | 1 to 10 | 
COc1ccc(C=C(SCc2ccc(Cl)cc2)C(=O)c2ccc(C(=O)O)cc2)cc1 [Example 227] | 25 to 50 | 25 to 50 |  |  | 
O=C(C(=Cc1ccc(O)c([N+](=O)[O-])c1)Sc1ccccc1Br)c1ccc(Br)cc1 [Example 10] |  |  | 10 to 25 | 1 to 10 | 
COc1ccc(C=C(SCc2ccc(F)cc2)C(=O)c2ccc(Br)cc2)cc1 [Example 265] | 1 to 10 | 25 to 50 |  |  | 
COc1cc(OC)c(/C=C(\C(=O)c2ccc(Cl)cc2)[S+]([O-])Cc2ccccc2Cl)c(OC)c1 (stereo not shown) [Example 354] |  |  |  |  | IC50 [1, 7]: 50 to 100 µM; IC50 [2, 7]: 10 to 25 µM
O=C(C(=Cc1ccccc1OCc1ccccc1)Sc1ccc(F)cc1)c1ccc(Cl)cc1 [Example 55] |  |  | 1 to 10 | 1 to 10 | 
O=C(/C(=C\c1ccc(F)cc1C(F)(F)F)[S+]([O-])Cc1ccc(Cl)cc1)c1ccc(Cl)cc1 (stereo not shown) [Example 355] |  |  |  |  | IC50 [1, 7]: 50 to 100 µM; IC50 [2, 7]: 50 to 100 µM
O=C(C(=Cc1ccc(Br)cc1)SCc1ccc(F)cc1)c1ccc(Br)cc1 [Example 253] | 1 to 10 | 25 to 50 |  |  | 
O=C(C(=Cc1ccc(OCc2ccccc2)cc1)SCc1cccc(Cl)c1)c1ccc(Br)cc1 [Example 146] | 1 to 10 | 1 to 10 |  |  | 
COc1cc(OC)c(OC)cc1C=C(SCc1ccc(Br)cc1)C(=O)c1ccc([N+](=O)[O-])cc1 [Example 305] | 10 to 25 | 10 to 25 |  |  | 
O=C(C(=Cc1ccc(Br)cc1)Sc1ccc(Br)cc1)c1ccc(Br)cc1 [Example 35] |  |  | 1 to 10 | 1 to 10 | 
Cc1ccc(SC(=Cc2c[nH]c3ccc(Cl)cc23)C(=O)c2ccc(Cl)cc2)cc1 [Example 108] |  |  | 1 to 10 | 1 to 10 | 
COc1cc(OC)c(C=C(SCc2ccc(Cl)cc2)C(=O)c2ccc([N+](=O)[O-])cc2)c(OC)c1 [Example 194] | 50 to 100 | > 100 |  |  | 
Cc1ccc(CS/C(=C/c2ccc(F)c([N+](=O)[O-])c2)C(=O)c2ccc(Cl)c([N+](=O)[O-])c2)cc1 [Example 349] | ≤ 1 | 1 to 10 |  |  | 

SMILES | IC50 [1, 3] [µM] | IC50 [2, 3] [µM] | IC50 [1, 4] [µM] | IC50 [2, 4] [µM] | also measured
O=C(/C(=C\c1cc(Br)c(O)c(Br)c1)S(=O)(=O)Cc1ccc(Br)cc1)c1ccc(Br)cc1 [Example 368] |  |  |  |  | IC50 [1, 5]: 25 to 50 µM; IC50 [2, 6]: 25 to 50 µM
O=C(C(=Cc1ccc(F)c([N+](=O)[O-])c1)SCc1ccc(Br)cc1)c1c(F)c(F)c(F)c(F)c1F [Example 310] | 1 to 10 | 1 to 10 |  |  | 
O=C(C(=Cc1ccc(O)c([N+](=O)[O-])c1)SCc1ccc(Cl)cc1)c1ccc(Cl)cc1 [Example 220] | 10 to 25 | 10 to 25 |  |  | 
COc1cc(OC)c(C=C(Sc2ccc(Br)cc2)C(=O)c2ccc(Cl)cc2)c(OC)c1 [Example 14] |  |  | 50 to 100 | 50 to 100 | 
Cc1cc(C)cc(C=C(SCc2ccc(F)cc2)C(=O)c2ccc(Br)cc2)c1 [Example 242] | 1 to 10 | 10 to 25 |  |  | 
O=C(O)c1ccc(C(=O)C(=Cc2ccc(Br)c([N+](=O)[O-])c2)SCc2ccccc2Cl)cc1 [Example 302] | 1 to 10 | 1 to 10 |  |  | 
COc1ccc(C=C(SCc2ccc(Cl)cc2)C(=O)c2ccc(Cl)cc2)cc1O [Example 204] | ≤ 1 | 1 to 10 |  |  | 
Cc1cc(C)cc(C=C(Sc2ccc(Br)cc2)C(=O)c2ccc(Cl)cc2)c1 [Example 26] |  |  | 1 to 10 | 10 to 25 | 
O=C(C(=Cc1ccc([N+](=O)[O-])c(O)c1)SCc1ccc(Br)cc1)c1ccc(Br)cc1 [Example 155] | 1 to 10 | 10 to 25 |  |  | 
Cc1ccc(SC(=Cc2ccc(Cl)c(Cl)c2)C(=O)c2ccc(Br)cc2)cc1 [Example 77] |  |  | 50 to 100 | 50 to 100 | 
COc1ccc(C=C(Sc2ccc(Br)cc2)C(=O)c2ccc(Br)cc2)c(F)c1 [Example 23] |  |  | 1 to 10 | 10 to 25 | 
O=C(C(=Cc1c(O)cc(O)cc1O)SCc1ccc(Cl)cc1)c1ccc(Cl)cc1 [Example 192] | > 100 | > 100 |  |  | 
COc1cc(C(=O)/C(=C\c2ccc(O)c([N+](=O)[O-])c2)SCc2ccc(Br)cc2)cc(OC)c1OC [Example 178] | 1 to 10 | 1 to 10 |  |  | 
CCN(CC)CCNC(=O)c1c(C)[nH]c(/C=C(/SCc2ccc(Br)cc2)C(=O)c2ccc(Br)cc2)c1C [Example 162] | 1 to 10 | 1 to 10 |  |  | 
Cc1ccc(SC(=Cc2ccc(N(C)C)cc2)C(=O)c2ccc(Cl)cc2)cc1 [Example 102] |  |  | > 100 | > 100 | 
CCN(CC)CCNC(=O)c1c(C)[nH]c(C=C(SCc2ccc(C)cc2)C(=O)c2ccc(C(=O)O)cc2)c1C [Example 284] | 50 to 100 | 50 to 100 |  |  | 
Cc1ccc(SC(=Cc2c[nH]c3ccccc23)C(=O)c2ccc(Cl)cc2)cc1 [Example 81] |  |  | 1 to 10 | 10 to 25 | 
Nc1ccc(/C=C(/SCc2ccc(F)cc2)C(=O)c2ccc(C(=O)O)cc2)cc1[N+](=O)[O-] [Example 333] | 10 to 25 | 10 to 25 |  |  | 
